According to patent US20190000868A1, “COMPOSITIONS COMPRISING 4'-O-GLUCURONIDE EPICATECHIN AND METHODS OF MAKING AND USING SUCH COMPOSITIONS” (NESTEC S.A., priority 2015, published 2019):

Test system: endothelial nitric oxide synthase
Test: eNOS phosphorylation (western blot) in isolated aortic rat rings
Type: cell-based
Set-up: dose or concentration left out as unconfirmed
Conditions: isolated thoracic aortic rings of male Wistar rats, incubated 1 h, FIG. 4
Method: Comparative experiments were conducted on the expression of endothelial nitric oxide synthase in isolated aortic rat rings.
Thoracic aortas were obtained from male adults Wistar rats after euthanasia. Each aorta was carefully dissected and harvested cleaned of excess tissue and cut into three equal segments, approximately 7 mm long. All aortic rings were pre-incubated for 30 min in Krebs solution (20 mM Hepes buffer, pH 7.4, containing 119 mM NaCl, 4.7 mM KCl, 1 mM MgSO4, 0.4 mM NaH2PO4, 0.15 mM Na2HPO4, 5 mM NaHCO3, 1.25 mM CaCl2, 5.5 mM glucose) aerated with 95% O2 and 5% CO2 at 37° C. and then incubated with vehicle (DMSO 1%) or the different metabolites for 1 h. Metabolites were first dissolved in DMSO 1% and tested in a final concentration […]. At the end of the incubation period aortic rings were frozen at −70° C. until the homogenate preparation. Homogenates for western blot and western blot determinations were carried out by the regular procedures and phosphorylation level of endothelial nitric oxide synthase was evaluated.

## O=C(O)[C@H]1O[C@@H](Oc2ccc([C@H]3Oc4cc(O)cc(O)c4C[C@H]3O)cc2O)[C@H](O)[C@@H](O)[C@@H]1O [4′-O-glucuronide epicatechins, 4′-O-glucuronide epicatechin]
  phosphorylation level of endothelial nitric oxide synthase (p-eNOS vs eNOS total): increased eNOS phosphorylation relative to control and chemically similar epicatechins
